Earlier results in patent US20080171724A1, “Phosphonate Derivatives of Mycophenolic Acid” (GILEAD SCIENCES, INC., priority 2004, published 2008).

Settings: after oral or intravenous administration; converted to active metabolite mycophenolic acid

COc1c(C)c2c(c(O)c1C/C=C(\C)CCC(=O)OCCN1CCOCC1)C(=O)OC2 [Mycophenolate mofetil]
fraction of the drug cleared by glucuronidation and excreted in the urine: over 90%
